Measurements published in the NIST ThermoML archive (doi:10.1021/je3000469).

How the values were obtained:
[1] = wn = mass fraction of the nth substance listed; conditions: 101 kPa, w1 = 0.561; for viscosity: Capillary tube (Ostwald / Ubbelohde) method; for mass density: Vibrating tube method
[2] = molar heat capacity at constant pressure; wn = mass fraction of the nth substance listed; conditions: 101 kPa, w1 = 0.561

O=[N+]([O-])[O-].[Li+] [lithium nitrate] + O
Conditions | mass density [kg/m3] | molar heat capacity at constant pressure [J/K/mol] | thermal conductivity [W/m/K] | viscosity [mPa·s]
[1], 253.2 K, Crystal of intercomponent compound 1, Hot disk method | – | – | 0.76 | –
[1], 263.2 K, Crystal of intercomponent compound 1, Hot disk method | – | – | 0.74 | –
[1], 273.2 K, Crystal of intercomponent compound 1, Hot disk method | – | – | 0.77 | –
[1], 283.2 K, Crystal of intercomponent compound 1, Hot disk method | – | – | 0.76 | –
[1], 293.2 K, Crystal of intercomponent compound 1, Hot disk method | – | – | 0.75 | –
[1], 294.2 K, Crystal of intercomponent compound 1, Hot disk method | – | – | 0.82 | –
[1], 308.2 K, Liquid | 1425 | – | – | 5.34
[1], 313.2 K, Liquid | 1420 | – | – | 4.8
[1], 318.2 K, Liquid | 1413 | – | – | 4.37
[1], 323.2 K, Liquid | 1408 | – | – | 3.96
[1], 328.2 K, Liquid | 1402 | – | – | 3.6
[1], 333.2 K, Liquid | 1395 | – | – | 3.31
[1], 338.2 K, Liquid | 1390 | – | – | 3.06
[1], 343.2 K, Liquid | 1384 | – | – | 2.84
[1], 348.2 K, Liquid | 1378 | – | – | 2.63
[1], 353.2 K, Liquid | 1372 | – | – | 2.46
[2], 253.2 K, Crystal of intercomponent compound 1, Small sample (50 mg) DSC | – | 48.92 | – | –
[2], 263.2 K, Crystal of intercomponent compound 1, Small sample (50 mg) DSC | – | 50.15 | – | –
[2], 273.2 K, Crystal of intercomponent compound 1, Small sample (50 mg) DSC | – | 51.38 | – | –
[2], 283.2 K, Crystal of intercomponent compound 1, Small sample (50 mg) DSC | – | 52.61 | – | –
[2], 288.2 K, Crystal of intercomponent compound 1, Small sample (50 mg) DSC | – | 53.22 | – | –

Liquid
Conditions | molar heat capacity at constant pressure [J/K/mol] | thermal conductivity [W/m/K]
[1], 308.2 K, hot wire | – | 0.584
[1], 313.2 K, hot wire | – | 0.581
[1], 318.2 K, hot wire | – | 0.587
[1], 323.2 K, hot wire | – | 0.583
[1], 328.2 K, hot wire | – | 0.585
[1], 333.2 K, hot wire | – | 0.588
[1], 338.2 K, hot wire | – | 0.588
[1], 343.2 K, hot wire | – | 0.588
[1], 348.2 K, hot wire | – | 0.595
[1], 353.2 K, hot wire | – | 0.611
[2], 308.2 K, hot wire method | 89.52 | –
[2], 313.2 K, Small sample (50 mg) DSC | 84.91 | –
[2], 313.2 K, hot wire method | 89.52 | –
[2], 318.2 K, hot wire method | 90.45 | –
[2], 323.2 K, Small sample (50 mg) DSC | 85.22 | –
[2], 323.2 K, hot wire method | 90.45 | –
[2], 328.2 K, hot wire method | 91.06 | –
[2], 333.2 K, Small sample (50 mg) DSC | 84.91 | –
[2], 333.2 K, hot wire method | 91.68 | –
[2], 338.2 K, hot wire method | 91.99 | –
[2], 343.2 K, Small sample (50 mg) DSC | 85.22 | –
[2], 343.2 K, hot wire method | 92.29 | –
[2], 348.2 K, hot wire method | 93.22 | –
[2], 353.2 K, Small sample (50 mg) DSC | 84.91 | –
[2], 353.2 K, hot wire method | 94.45 | –
